Source: patent publication US20170367338A1, “COMPOSITIONS AND METHODS FOR IMPROVING AGRONOMIC CHARACTERISTICS OF PLANTS” (MONSANTO TECHNOLOGY LLC, priority 2014, published 2017)
In brackets after ≈: the same amount, converted by molar mass. Read-outs that look alike come from different tables or passages of the source.

Tests used:
Type in all cases: in vivo
C. elegans = assay: Three day C. elegans well assay; conditions: for EC50: Caenorhabditis elegans
Method: Various compounds were tested for nematicidal activity against C. elegans using contact assays in wells. The assays were performed as described below. The test compounds were solubilized in DMSO at 10 mg/ml to create 100× stock solutions. A dilution series was created by diluting the stock solution with DMSO. For each well assay 4 ul of the appropriate dilution is added to a well of a test plate. A 400 ul aliquot of bacterial stock (in M9 buffer with ampicillin and nystatin) are added to each well of the test plate. Worms are added and the test plate placed on a rotary shaker and held at 20° C. Worms are examined and scored at 4 hrs, 24 hrs, 48 hrs and 72 hours. L1 worms and L4 worms were used in the assay. L1 worms are prepared by plating eggs on a plate without a bacterial feeding layer. The eggs hatch and arrest at the L1 stage. This L1 stage population is then used to create a stock for the experiments. To create an L4 stage stock a small number of worms are taken from an overgrown and starved plate of worms and seeded on a plate with a bacterial feeder layer. A 25 ul aliquot of worms is added to each well in the assay.

[1] = system: Heterodera glycines (SCN); assay: Seed treatment test of soybean cyst nematode on soybean; conditions: Heterodera glycines, 672 h, test b, read-out: percent cyst reduction relative to control blank treatment; for pest or weed control at 0.375 mg/g: 0.375 mg ai/gram seed; for pest or weed control at 1.5 mg/g: 1.5 mg ai/gram seed
Method: For a given concentration the chemical is dissolved in 500 ul of acetone and one gram of cucumber seed (RKN test) or soybean seed (SCN test) is added (e.g., 20 mg active ingredient in 500 ul acetone plus 1 gram of seed). The seed solutions are agitated until all seeds were thoroughly covered with the chemical solution. The acetone is then allowed to evaporate by air drying the seeds. The seeds are planted in 2-inch pots containing sandy soil and then the pots are inoculated with 1000 Meloidogyne incognita (RKN) or 1000 Heterodera glycines (SCN) eggs per pot three days after planting. Plants are rated for galling 14 days after egg inoculation for RKN or 28 days after egg inoculation for SCN.

Meloidogyne incognita = assay: Summer field evaluation of pre-plant incorporated compounds on squash; conditions: 2 kg/ha PPI, squash
Method: Test plots of 33 cm diameter holes were bored 41 cm deep into clay soil and filled with a mixture of 80% sand and 20% silt loam soil. Technical compound for each treatment was dissolved in 50 ml acetone containing 250 ul of Triton X-100 surfactant. This solution was added to 450 ml water and poured onto 95 liters of sand/soil mixture in a rotating drum mixer. While continuing to rotate the mixing drum 66 grams of chopped, galled, tomato roots was added and thoroughly distributed. The treated soil was sufficient to fill the top 15 cm of each of the 6 replicate plots, thus simulating a PPI treatment. The plots were then watered lightly and a mixture of M. incognita eggs and larvae were injected 5 cm deep at 5 points within the plot (100k eggs/larvae in 10m1 per plot). Three-week old squash (cv. Liberator III) with 1 fully expanded true leaf was planted 4 days after soil treatment, one per plot.

[2] = 24 h, L1 larvae, one day of exposure, read-out: EC50 L1 1D
[3] = 24 h, L4 larvae, one day of exposure, read-out: EC50 L4 1D
[4] = 48 h, L1 larvae, two days of exposure, read-out: EC50 L1 2D
[5] = 48 h, L4 larvae, two days of exposure, read-out: EC50 L4 2D
[6] = 72 h, L1 larvae, three days of exposure, read-out: EC50 L1 3D
[7] = 72 h, L4 larvae, three days, effects on the second generation larvae, read-out: EC50 L4 3D (F1)

Compound | EC50 (C. elegans; [2]) | EC50 (C. elegans; [3]) | EC50 (C. elegans; [4]) | EC50 (C. elegans; [5]) | EC50 (C. elegans; [6]) | EC50 (C. elegans; [7]) | further results
Cc1cc(F)ccc1-c1noc(-c2ccco2)n1 [compound 5846] | 1.6 µg/mL (≈ 6.55 µM) | 1.6 µg/mL (≈ 6.55 µM) | 0.4 µg/mL (≈ 1.64 µM) | 1.6 µg/mL (≈ 6.55 µM) | 0.4 µg/mL (≈ 1.64 µM) | 1.6 µg/mL (≈ 6.55 µM) | –
Fc1ccc(-c2noc(-c3cccs3)n2)c(F)c1 [compound 5847] | – | – | 0.4 µg/mL (≈ 1.51 µM) | 1.6 µg/mL (≈ 6.05 µM) | 0.4 µg/mL (≈ 1.51 µM) | 1.6 µg/mL (≈ 6.05 µM) | pest or weed control at 0.375 mg/g [1]: 66%; pest or weed control at 1.5 mg/g [1]: 80%; EC50 L1 1D (C. elegans; L1 larvae, one day of exposure): no; EC50 L4 1D (C. elegans; L4 larvae, one day of exposure): no
Fc1cc(Br)ccc1-c1noc(-c2cccs2)n1 [compound 5848] | 1.6 µg/mL (≈ 4.92 µM) | 1.6 µg/mL (≈ 4.92 µM) | 0.4 µg/mL (≈ 1.23 µM) | 1.6 µg/mL (≈ 4.92 µM) | 0.4 µg/mL (≈ 1.23 µM) | 1.6 µg/mL (≈ 4.92 µM) | –
Fc1ccc(-c2noc(-c3ccco3)n2)c(F)c1 [compound 5849] | 6.3 µg/mL (≈ 25.4 µM) | – | 0.4 µg/mL (≈ 1.61 µM) | – | 1.6 µg/mL (≈ 6.45 µM) | 6.3 µg/mL (≈ 25.4 µM) | EC50 L4 1D (C. elegans; L4 larvae, one day of exposure): no
Fc1cc(Br)ccc1-c1noc(-c2ccco2)n1 [compound 5850] | 1.6 µg/mL (≈ 5.18 µM) | 1.6 µg/mL (≈ 5.18 µM) | 0.4 µg/mL (≈ 1.29 µM) | 1.6 µg/mL (≈ 5.18 µM) | 0.4 µg/mL (≈ 1.29 µM) | 1.6 µg/mL (≈ 5.18 µM) | –
Fc1cc(Cl)ccc1-c1noc(-c2cccs2)n1 [compound 5860] | 1.6 µg/mL (≈ 5.7 µM) | 1.6 µg/mL (≈ 5.7 µM) | 0.4 µg/mL (≈ 1.42 µM) | 1.6 µg/mL (≈ 5.7 µM) | 0.4 µg/mL (≈ 1.42 µM) | 1.6 µg/mL (≈ 5.7 µM) | –
Fc1cc(Cl)ccc1-c1noc(-c2ccco2)n1 [compound 5861] | 0.4 µg/mL (≈ 1.51 µM) | 1.6 µg/mL (≈ 6.05 µM) | 0.4 µg/mL (≈ 1.51 µM) | 1.6 µg/mL (≈ 6.05 µM) | 0.4 µg/mL (≈ 1.51 µM) | 1.6 µg/mL (≈ 6.05 µM) | –
Fc1cc(F)c(-c2noc(-c3cccs3)n2)c(F)c1 [compound 5878] | – | – | – | – | – | – | pest or weed control at 0.375 mg/g [1]: 43%; pest or weed control at 1.5 mg/g [1]: 77%
Clc1ccc(-c2nsc(-c3cccs3)n2)cc1 [compound 5905] | 0.4 µg/mL (≈ 1.43 µM) | – | 0.4 µg/mL (≈ 1.43 µM) | – | 0.4 µg/mL (≈ 1.43 µM) | – | –
Clc1ccc(-c2nsc(-c3ccco3)n2)cc1 [compound 5906] | 0.4 µg/mL (≈ 1.52 µM) | – | 0.4 µg/mL (≈ 1.52 µM) | – | 0.4 µg/mL (≈ 1.52 µM) | – | –
Fc1cc(Cl)ccc1-c1nsc(-c2ccco2)n1 [compound 5953] | – | – | – | – | – | – | pest or weed control at 0.375 mg/g [1]: 44%; pest or weed control at 1.5 mg/g [1]: 77%
CCOP(=O)(SC(C)CC)N1CCSC1=O (stereo not drawn) [fosthiazate] | – | – | – | – | – | – | 0-3 vigor 16DAP (Meloidogyne incognita): 3.0; 0-3 vigor 21DAP (Meloidogyne incognita): 3.0; feeder root (3 = ave) 31DAP (Meloidogyne incognita): 2.3; gall % 31DAP (Meloidogyne incognita): 5%; root wgt (g) 31DAP (Meloidogyne incognita): 26.4 g; top wgt (lbs) 31DAP (Meloidogyne incognita): 2.01 lbs; total fruit (lbs) (Meloidogyne incognita): 1.25 lbs
